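Dose response: 5 concentrations. Exposure: 48 h. Format: 96-well plates. Endpoint: linear interpolation; highest concentration if not reached. GI50 is the concentration that inhibits growth by half.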 Active and inactive are the calls of the source. Rule as the data show it: active = GI50 up to about 1.1 µM and inactive = higher.
How the values were obtained:
Experiment in all cases: growth of human tumour cells (NCI), 48 h
K562 = system: K562
HL-60 = system: HL-60
SW-620 = system: SW-620
CCRF-CEM = system: CCRF-CEM
UACC-62 = system: UACC-62
U-251 = system: U-251
IGROV-1 = system: IGROV-1
TK-10 = system: TK-10
OVCAR-3 = system: OVCAR-3
OVCAR-4 = system: OVCAR-4
OVCAR-5 = system: OVCAR-5
OVCAR-8 = system: OVCAR-8
SN12C = system: SN12C
HCT-116 = system: HCT-116
SF-295 = system: SF-295
LOX IMVI = system: LOX IMVI
UACC-257 = system: UACC-257
EKVX = system: EKVX

Measured: GI50

CN(C)c1ccc(/C=C2\C=Cc3ccccc32)cc1
inactive: K562 28.8 µM | HL-60 27.9 µM | SW-620 38.1 µM | CCRF-CEM 43.2 µM | UACC-62 42.3 µM | U-251 55 µM | IGROV-1 53.7 µM | TK-10 > 100 µM | OVCAR-3 73.6 µM | OVCAR-4 50.5 µM | OVCAR-5 > 100 µM | OVCAR-8 94.8 µM | SN12C 39.9 µM | HCT-116 33.1 µM | SF-295 34.3 µM | LOX IMVI 47.2 µM

CNS(=O)(=O)NNS(=O)(=O)c1cccc([N+](=O)[O-])c1
inactive: K562 > 100 µM | SW-620 > 100 µM | CCRF-CEM > 100 µM | UACC-62 > 100 µM | UACC-257 > 100 µM | U-251 > 100 µM | EKVX > 100 µM | IGROV-1 > 100 µM | TK-10 > 100 µM | OVCAR-3 > 100 µM | OVCAR-4 > 100 µM | OVCAR-8 > 100 µM | SN12C > 100 µM | HCT-116 > 100 µM | SF-295 > 100 µM | LOX IMVI > 100 µM

CCOC(=O)C1=C(C)N(NC(=O)Nc2ccccc2)C2(N)N(NC(=O)Nc3ccccc3)C(C)=C(C(=O)OCC)C12C#N (configuration not stated)
inactive: K562 20 µM | SW-620 18.9 µM | CCRF-CEM 28.2 µM | UACC-62 17.5 µM | UACC-257 23.7 µM | U-251 18.4 µM | IGROV-1 19.7 µM | TK-10 25.2 µM | OVCAR-3 17.5 µM | OVCAR-4 17.4 µM | OVCAR-5 17.8 µM | OVCAR-8 18.5 µM | SN12C 17.6 µM | HCT-116 17.5 µM | LOX IMVI 18.9 µM

Cn1c2cc([N+](=O)[O-])ccc2c(=O)c2c(O)cc3c(c21)C=CC(C)(C)O3
inactive: K562 > 100 µM | HL-60 > 100 µM | SW-620 > 100 µM | CCRF-CEM > 100 µM | UACC-62 25.1 µM | UACC-257 > 100 µM | U-251 > 100 µM | EKVX 22 µM | IGROV-1 31.1 µM | TK-10 37.1 µM | OVCAR-4 > 100 µM | OVCAR-5 32 µM | OVCAR-8 59.3 µM | SN12C > 100 µM | SF-295 16.9 µM | LOX IMVI > 100 µM

COc1ccc(/C=N/NC(=O)NCCNCCO)cc1
inactive: K562 > 100 µM | HL-60 > 100 µM | SW-620 > 100 µM | CCRF-CEM > 100 µM | UACC-62 > 100 µM | UACC-257 > 100 µM | U-251 > 100 µM | IGROV-1 > 100 µM | TK-10 > 100 µM | OVCAR-3 > 100 µM | OVCAR-4 > 100 µM | OVCAR-5 > 100 µM | OVCAR-8 > 100 µM | SN12C > 100 µM | HCT-116 > 100 µM | SF-295 > 100 µM | LOX IMVI > 100 µM

CCCC/C=C1\CCC(CN2CCCC2)C1=O (configuration not stated)
inactive: K562 2.71 µM | HL-60 8.61 µM | SW-620 2.07 µM | CCRF-CEM 3.5 µM | UACC-62 17.1 µM | UACC-257 18.1 µM | U-251 6.75 µM | EKVX 3.98 µM | IGROV-1 18.4 µM | TK-10 2.59 µM | OVCAR-3 17.1 µM | OVCAR-5 19.1 µM | OVCAR-8 15.1 µM | SN12C 17.9 µM | HCT-116 14.3 µM | SF-295 18.1 µM | LOX IMVI 8.09 µM

N#Cc1ccc(Nc2cnc3cc(N)ccc3n2)cc1
inactive: K562 28.3 µM | HL-60 14.9 µM | SW-620 > 100 µM | CCRF-CEM 33 µM | UACC-62 83.4 µM | UACC-257 > 100 µM | U-251 > 100 µM | EKVX 98.2 µM | TK-10 > 100 µM | OVCAR-3 95.9 µM | OVCAR-4 > 100 µM | OVCAR-5 > 100 µM | OVCAR-8 > 100 µM | SN12C 89.1 µM | HCT-116 55 µM | SF-295 > 100 µM | LOX IMVI 75.2 µM

Cc1ccc(/C=C/C(=O)c2sc(-c3cccnc3)nc2C)cc1
inactive: K562 > 100 µM | HL-60 > 100 µM | SW-620 > 100 µM | CCRF-CEM > 100 µM | UACC-62 > 100 µM | UACC-257 > 100 µM | U-251 > 100 µM | EKVX > 100 µM | IGROV-1 > 100 µM | TK-10 > 100 µM | OVCAR-3 > 100 µM | OVCAR-5 > 100 µM | OVCAR-8 > 100 µM | SN12C > 100 µM | SF-295 > 100 µM | LOX IMVI > 100 µM

NCCNc1cccc2ccccc12
inactive: HL-60 > 100 µM | SW-620 > 100 µM | UACC-62 > 100 µM | UACC-257 > 100 µM | U-251 > 100 µM | EKVX > 100 µM | IGROV-1 > 100 µM | TK-10 > 100 µM | OVCAR-3 > 100 µM | OVCAR-4 > 100 µM | OVCAR-5 > 100 µM | OVCAR-8 > 100 µM | SN12C > 100 µM | HCT-116 > 100 µM | SF-295 > 100 µM | LOX IMVI > 100 µM

Cc1nc2c(n1CC(C)(C)C)C(=O)c1ccccc1C2=O
inactive: K562 56 µM | HL-60 36.1 µM | SW-620 > 100 µM | CCRF-CEM > 100 µM | UACC-62 89.5 µM | UACC-257 80.7 µM | U-251 > 100 µM | EKVX > 100 µM | IGROV-1 > 100 µM | TK-10 > 100 µM | OVCAR-3 66.7 µM | OVCAR-4 > 100 µM | OVCAR-8 > 100 µM | SN12C > 100 µM | HCT-116 79.3 µM | SF-295 > 100 µM | LOX IMVI 55.6 µM

C/C(CC(=O)Nc1ccc(C)c(C)c1)=N\NC(N)=O
inactive: K562 > 100 µM | HL-60 > 100 µM | SW-620 > 100 µM | CCRF-CEM > 100 µM | UACC-62 > 100 µM | UACC-257 > 100 µM | U-251 > 100 µM | EKVX > 100 µM | IGROV-1 > 100 µM | TK-10 > 100 µM | OVCAR-3 > 100 µM | OVCAR-5 > 100 µM | OVCAR-8 > 100 µM | HCT-116 > 100 µM | SF-295 > 100 µM | LOX IMVI > 100 µM

Cc1nc2nnc(C)n2c2c1C(=O)Nc1ccccc1N2
inactive: K562 > 100 µM | HL-60 > 100 µM | SW-620 > 100 µM | CCRF-CEM > 100 µM | UACC-62 > 100 µM | UACC-257 > 100 µM | U-251 > 100 µM | EKVX > 100 µM | IGROV-1 > 100 µM | TK-10 > 100 µM | OVCAR-3 > 100 µM | OVCAR-8 > 100 µM | SN12C > 100 µM | HCT-116 > 100 µM | SF-295 > 100 µM | LOX IMVI > 100 µM

CCOC(=O)[C@H]1Nc2ccc(OC)cc2C2c3ccccc3CC21 (some centres not stated)
inactive: K562 > 100 µM | SW-620 > 100 µM | UACC-62 > 100 µM | UACC-257 > 100 µM | U-251 > 100 µM | IGROV-1 > 100 µM | TK-10 > 100 µM | OVCAR-3 > 100 µM | OVCAR-4 > 100 µM | OVCAR-5 > 100 µM | OVCAR-8 > 100 µM | SN12C > 100 µM | HCT-116 > 100 µM | SF-295 > 100 µM | LOX IMVI > 100 µM

OCCN(CCO)c1ncnc2c1sc(=S)n2-c1ccccc1
inactive: K562 > 100 µM | HL-60 > 100 µM | SW-620 > 100 µM | CCRF-CEM > 100 µM | UACC-62 > 100 µM | UACC-257 > 100 µM | U-251 > 100 µM | EKVX > 100 µM | IGROV-1 > 100 µM | TK-10 > 100 µM | OVCAR-3 > 100 µM | OVCAR-4 > 100 µM | OVCAR-5 > 100 µM | OVCAR-8 > 100 µM | SN12C > 100 µM | HCT-116 > 100 µM | SF-295 > 100 µM | LOX IMVI > 100 µM

CC1CC/C(=C\c2ccc(F)cc2)C2=C1C(c1ccc(F)cc1)n1c(s/c(=C/c3cccc(Br)c3)c1=O)=N2 (configuration not stated)
inactive: K562 > 100 µM | HL-60 > 100 µM | SW-620 > 100 µM | CCRF-CEM > 100 µM | UACC-62 > 100 µM | UACC-257 > 100 µM | U-251 > 100 µM | EKVX > 100 µM | IGROV-1 > 100 µM | TK-10 > 100 µM | OVCAR-5 > 100 µM | OVCAR-8 > 100 µM | SN12C > 100 µM | HCT-116 > 100 µM | LOX IMVI > 100 µM

Cc1cc2c(c(C(N)=O)c1C)-c1cc(Cl)cc(Cl)c1C2=O
inactive: K562 > 100 µM | HL-60 > 100 µM | CCRF-CEM > 100 µM | UACC-62 > 100 µM | UACC-257 > 100 µM | U-251 30.7 µM | EKVX 58.9 µM | IGROV-1 > 100 µM | TK-10 > 100 µM | OVCAR-3 > 100 µM | OVCAR-4 > 100 µM | OVCAR-5 > 100 µM | OVCAR-8 37.7 µM | SN12C > 100 µM | HCT-116 > 100 µM | SF-295 73.8 µM | LOX IMVI 93.3 µM

[N-]=[N+]=NC12CC3C4CC5CC3C(C1)C(C5)C4C2
inactive: K562 > 100 µM | SW-620 > 100 µM | CCRF-CEM > 100 µM | UACC-62 > 100 µM | UACC-257 > 100 µM | U-251 > 100 µM | EKVX > 100 µM | IGROV-1 > 100 µM | TK-10 > 100 µM | OVCAR-3 > 100 µM | OVCAR-4 > 100 µM | OVCAR-5 > 100 µM | OVCAR-8 > 100 µM | SN12C > 100 µM | HCT-116 > 100 µM | SF-295 > 100 µM | LOX IMVI > 100 µM

From ChEMBL document CHEMBL1201862, “PubChem BioAssay data set” (2004)
